Reference: ChEMBL document CHEMBL5608211, “Antibody-drug conjugates for targeted cancer therapy: Recent advances in potential payloads” (Eur J Med Chem, 2024)
Blank lines part the entries; values can stand above or below the molecule they belong to. Starred links: 1 amine or outer side, 2 acyl side, 3 side chain; linkers in the order of their positions; H or OH if unused. Positions of bridges follow the written chain, without caps; N, C: chain ends. Non-standard residues stand in square brackets, D forms with d. Residues, ends and D or L forms follow the SMILES beside them. *: point of attachment. X7 = C[C@H]([C@H](N[*:3])C(=O)C[C@@H](Cc1c([*:2])[nH]c2cc(O)ccc12)C(=O)[*:1])[C@@H](O)CO; Dolaproine = CO[C@@H]([C@@H]1CCCN1)[C@@H](C)C(=O)O; X10 = CC(C)[C@@H](C(=O)[*:2])N(C)CCCCN(C)[*:1]; X1 = O=C([C@]1(N[*:1])C[C@@H]1c1ccccc1)[*:2]; Dil = CC[C@H](C)[C@H](NC)[C@@H](CC(=O)O)OC; X3 = CCOP(=O)(OCC)[C@@H](N[*:1])C(=O)[*:2]; Pro(4R-NH2) = N[C@H]1CN[C@H](C(=O)O)C1; X9 = c1ccc(C[C@H](N*)c2nn[nH]n2)cc1; NMe2Val = CC(C)[C@@H](C(=O)*)N(C)C; X8 = CCOP(=O)(O)[C@H](Cc1ccccc1)N*; X6 = C[C@@H](N*)[C@@H](O)c1ccccc1; NMeV = CN[C@H](C(=O)O)C(C)C; X5 = c1ccc(COC2CON(*)C2)cc1; X2 = c1ccc2c(c1)CON(*)C2; Boc = CC(C)(C)OC(=O)*; X4 = C1=CC2CCC1ON2*; NHOH = ON*

Columns and labels:
MOLM-13 = assay: Growth inhibition of human MOLM-13 cells incubated for 5 days by PrestoBlue reagent assay; format: functional; details: MOLM-13, 120 h, time 5 day
CCRF-CEM = assay: Cytotoxicity against human CCRF-CEM cells; format: functional, cell-based
A2780 = assay: Cytotoxicity against human A2780 cells assessed as inhibition of cell growth incubated for 72 hrs by MTT assay; format: functional, cell-based; details: A2780, 72 h
Tubulin = assay: Displacement of fluorescent Maytansine probe from tubulin (unknown origin) assessed as dissociation constant by competitive binding based fluorescence anisotropy; format: protein-complex assay, Homo sapiens
KARPAS-299 = assay: Cytotoxicity against human KARPAS-299 cells incubated for 96 hrs by Alamar blue assay; format: functional, cell-based; details: KARPAS-299, 96 h
A2058 = assay: Cytotoxicity against human A2058 cells assessed as inhibition of cell growth incubated for 96 hrs by CellTiter-Glo luminescent assay; format: functional, cell-based; details: A2058, 96 h
[1] = Inhibition of RNA polymerase II phosphorylation in human HeLa cells by Western blot analysis; format: cell-based
H3396 [2] = assay: Cytotoxicity against human H3396 cells assessed as inhibition of cell growth incubated for 96 hrs by Alamar blue assay; format: functional, cell-based; details: H3396, 96 h
HCT-116 = assay: Cytotoxicity against human HCT-116 cells incubated for 96 hrs by resazurin dye based fluorescence spectrometric assay; format: functional, cell-based; details: HCT-116, 96 h
H3396 [3] = assay: Cytotoxicity against human H3396 cells incubated for 96 hrs by resazurin dye based fluorescence spectrometric assay; format: functional, cell-based; details: H3396, 96 h
786-0 = assay: Antiproliferative activity against human 786-0 cells incubated for 48 to 96 hrs by MTT assay; format: functional, cell-based
HT-29 [4] = assay: Antiproliferative activity against human HT-29 cells incubated for 48 to 96 hrs by MTT assay; format: functional, cell-based
SK-BR-3 = assay: Growth inhibition of human SK-BR-3 cells incubated for 72 hrs by CellTiter-Glo luminescent assay; format: functional
[5] = Cytotoxicity against human L540cy cells assessed as reduction in cell growth incubated for 4 days by CellTiter-Glo luminescent assay; format: functional, cell-based; details: 96 h
HT-29 [6] = assay: Antiproliferative activity against human HT-29 cells assessed as inhibition of cell growth incubated for 96 hrs by SRB assay; format: functional, cell-based; details: HT-29, 96 h
DLD-1 = assay: Antiproliferative activity against human DLD-1 cells assessed as inhibition of cell growth incubated for 3 to 4 days; format: functional, cell-based

GI50 (MOLM-13): 0.057 nM
Compound: CC[C@H](C)[C@@H]([C@@H](CC(=O)N1C[C@@H](N)C[C@H]1[C@H](OC)[C@@H](C)C(=O)N[C@@H](Cc1ccccc1)C(=O)OC)OC)N(C)C(=O)[C@@H](NC(=O)[C@H](C(C)C)N(C)C)[C@H](C)N=[N+]=[N-]

Compound: COc1ccc(C[C@H]2NC(=O)/C=C/C[C@@H]([C@H](C)[C@H]3O[C@@H]3c3ccc(F)cc3)OC(=O)[C@H](CC(C)C)OC(=O)C(C)(C)CNC2=O)cc1Cl
IC50 (CCRF-CEM): 0.033 nM

Compound: COc1cc2cc(c1Cl)N(C)C(=O)C[C@H](OC(=O)c1ccccc1)[C@@]1(C)O[C@H]1[C@H](C)[C@@H]1C[C@@](O)(NC(=O)O1)[C@H](OC)/C=C/C=C(\C)C2
IC50 (A2780): 0.11 nM
Kd (Tubulin): 51 nM

Compound: CC[C@H](C)[C@@H]([C@@H](CC(=O)N1CCC[C@H]1[C@H](OC)[C@@H](C)C(=O)N[C@H](Cc1ccccc1)C(=O)OC)OC)N(C)C(=O)[C@@H](NC(=O)c1ccc(N)cc1)C(C)C
IC50 (KARPAS-299): 0.12 nM

Compound: CC[C@H](C)[C@@H]([C@@H](CC(=O)N1CCC[C@H]1[C@H](OC)[C@@H](C)C(=O)N[C@@H](Cc1ccccc1)C(=O)O)OC)N(C)C(=O)[C@@H](NC(=O)[C@H](C(C)C)N(C)CCCCN(C)C(=O)OC(C)(C)C)C(C)C (Boc-[X10]V[Dil][Dolaproine]F-OH)
IC50 (A2058): 1 nM

Compound: CC[C@H](C)[C@@H]1NC(=O)CNC(=O)[C@H]2CC(=O)[C@H]([C@@H](C)[C@@H](O)CO)NC(=O)[C@@H]3C[C@@H](N)CN3C(=O)[C@H](CC(N)=O)NC(=O)[C@H](CSc3[nH]c4cc(O)ccc4c3C2)NC(=O)CNC1=O (GIGCN[Pro(4R-NH2)]; linker N-4-C via X7)
IC50 [1]: 550 nM

Compound: CC[C@H](C)[C@@H]([C@@H](CC(=O)N1CCC[C@H]1[C@H](OC)[C@@H](C)C(=O)N[C@H](C)[C@@H](O)c1ccccc1)OC)N(C)C(=O)[C@@H](NC(=O)[C@@H](NC)C(C)C)C(C)C (H-[NMeV]V[Dil][Dolaproine]-X6)
IC50 (H3396 [2]): 0.1 nM

Compound: CCOP(=O)(O)[C@H](Cc1ccccc1)NC(=O)[C@H](C)[C@@H](OC)[C@@H]1CCCN1C(=O)C[C@@H](OC)[C@H]([C@@H](C)CC)N(C)C(=O)[C@@H](NC(=O)[C@@H](NC)C(C)C)C(C)C (H-[NMeV]V[Dil][Dolaproine]-X8)
IC50 (HCT-116): 0.09 nM

Compound: CC[C@H](C)[C@@H]([C@@H](CC(=O)N1CCC[C@H]1[C@H](OC)[C@@H](C)C(=O)N[C@@H](Cc1ccccc1)c1nn[nH]n1)OC)N(C)C(=O)[C@@H](NC(=O)[C@@H](NC)C(C)C)C(C)C (H-[NMeV]V[Dil][Dolaproine]-X9)
IC50 (H3396 [3]): 6 nM

Compound: CC[C@H](C)[C@@H]([C@@H](CC(=O)N1CCC[C@H]1[C@H](OC)[C@@H](C)C(=O)N[C@@H](Cc1ccccc1)C(=O)N1CC(OCc2ccccc2)CO1)OC)N(C)C(=O)[C@@H](NC(=O)[C@@H](NC)C(C)C)C(C)C (stereo partly specified) (H-[NMeV]V[Dil][Dolaproine]F-X5)
IC50 (786-0): 0.5 nM
IC50 (HT-29 [4]): 0.5 nM

Compound: CC[C@H](C)[C@@H]([C@@H](CC(=O)N1CCC[C@H]1[C@H](OC)[C@@H](C)C(=O)N[C@@]1(C(=O)N2Cc3ccccc3CO2)C[C@@H]1c1ccccc1)OC)N(C)C(=O)[C@@H](NC(=O)[C@@H](NC)C(C)C)C(C)C (H-[NMeV]V[Dil][Dolaproine][X1]-X2)
IC50 (786-0): 0.5 nM
IC50 (HT-29 [4]): 0.5 nM

IC50 (786-0): 0.5 nM
IC50 (HT-29 [4]): 0.5 nM
Compound: CCOP(=O)(OCC)[C@@H](NC(=O)[C@H](C)[C@@H](OC)[C@@H]1CCCN1C(=O)C[C@@H](OC)[C@H]([C@@H](C)CC)N(C)C(=O)[C@@H](NC(=O)[C@@H](NC)C(C)C)C(C)C)C(=O)N1OC2C=CC1CC2 (stereo partly specified) (H-[NMeV]V[Dil][Dolaproine][X3]-X4)

GI50 (SK-BR-3): 0.1 nM
Compound: CC[C@H](C)[C@@H]([C@@H](CC(=O)N1CCC[C@H]1[C@H](OC)[C@@H](C)C(=O)N[C@@H](CC(C)C)C(=O)NO)OC)N(C)C(=O)[C@@H](NC(=O)[C@H](C(C)C)N(C)C)C(C)C (NMe2Val-V[Dil][Dolaproine]L-{NHOH})

Compound: O=C(/C=C/c1cccnc1)NCCCCC1CCN(C(=O)c2ccccc2)CC1 [DAPORINAD]
EC50 [5]: 6.7 nM

Compound: CC[C@H](C)[C@@H]([C@@H](CC(=O)N1CCC[C@H]1[C@H](OC)[C@@H](C)C(=O)N[C@@H](Cc1ccccc1)c1nccs1)OC)N(C)C(=O)[C@@H](NC(=O)[C@H](C(C)C)N(C)C)C(C)C [DOLASTATIN-10]
IC50 (HT-29 [6]): 0.018 nM

IC50 (DLD-1): 13 nM
Compound: C=C1C[C@@H]2CC[C@@]34C[C@H]5O[C@H]6[C@@H](O3)[C@H]3O[C@H](CC[C@@H]3O[C@H]6[C@H]5O4)CC(=O)C[C@@H]3[C@@H](OC)[C@@H](C[C@H](O)CN)O[C@H]3C[C@H]3O[C@@H](CC[C@@H]1O2)C[C@@H](C)C3=C [ERIBULIN]

Compound: COc1cc2cc(c1Cl)N(C)C(=O)C[C@H](OC(=O)[C@H](C)N(C)C(C)=O)[C@]1(C)O[C@H]1[C@H](C)[C@@H]1C[C@@](O)(NC(=O)O1)[C@H](OC)/C=C/C=C(\C)C2 [MAYTANSINE]
Kd (Tubulin): 14 nM
